Patent US9409858B2, “Selective histone deactylase 6 inhibitors” (H. LEE MOFFITT CANCER CENTER AND RESEARCH INSTITUTE, INC., priority 2012, dated 2016)
Entries after “also recorded” stand apart in the source; their conditions may differ.

Assays:
[1] = target: human, recombinant full-length HDAC1 (Homo sapiens (Human), UniProt Q13547); experiment: HDAC inhibition assay, HDAC1; assay type: biochemical
[2] = target: human, recombinant full-length HDAC6 (Homo sapiens (Human), UniProt Q9UBN7); experiment: HDAC inhibition assay, HDAC6; assay type: biochemical;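 further: recombinant full-length human HDAC1 and HDAC6 made in Sf9 cells, compound preincubated 5-10 min then substrate reaction 2 h at 30 °C, ten threefold dilutions from 30 µM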
human, recombinant full-length HDAC6, sequence (Q9UBN7 whole entry, canonical isoform): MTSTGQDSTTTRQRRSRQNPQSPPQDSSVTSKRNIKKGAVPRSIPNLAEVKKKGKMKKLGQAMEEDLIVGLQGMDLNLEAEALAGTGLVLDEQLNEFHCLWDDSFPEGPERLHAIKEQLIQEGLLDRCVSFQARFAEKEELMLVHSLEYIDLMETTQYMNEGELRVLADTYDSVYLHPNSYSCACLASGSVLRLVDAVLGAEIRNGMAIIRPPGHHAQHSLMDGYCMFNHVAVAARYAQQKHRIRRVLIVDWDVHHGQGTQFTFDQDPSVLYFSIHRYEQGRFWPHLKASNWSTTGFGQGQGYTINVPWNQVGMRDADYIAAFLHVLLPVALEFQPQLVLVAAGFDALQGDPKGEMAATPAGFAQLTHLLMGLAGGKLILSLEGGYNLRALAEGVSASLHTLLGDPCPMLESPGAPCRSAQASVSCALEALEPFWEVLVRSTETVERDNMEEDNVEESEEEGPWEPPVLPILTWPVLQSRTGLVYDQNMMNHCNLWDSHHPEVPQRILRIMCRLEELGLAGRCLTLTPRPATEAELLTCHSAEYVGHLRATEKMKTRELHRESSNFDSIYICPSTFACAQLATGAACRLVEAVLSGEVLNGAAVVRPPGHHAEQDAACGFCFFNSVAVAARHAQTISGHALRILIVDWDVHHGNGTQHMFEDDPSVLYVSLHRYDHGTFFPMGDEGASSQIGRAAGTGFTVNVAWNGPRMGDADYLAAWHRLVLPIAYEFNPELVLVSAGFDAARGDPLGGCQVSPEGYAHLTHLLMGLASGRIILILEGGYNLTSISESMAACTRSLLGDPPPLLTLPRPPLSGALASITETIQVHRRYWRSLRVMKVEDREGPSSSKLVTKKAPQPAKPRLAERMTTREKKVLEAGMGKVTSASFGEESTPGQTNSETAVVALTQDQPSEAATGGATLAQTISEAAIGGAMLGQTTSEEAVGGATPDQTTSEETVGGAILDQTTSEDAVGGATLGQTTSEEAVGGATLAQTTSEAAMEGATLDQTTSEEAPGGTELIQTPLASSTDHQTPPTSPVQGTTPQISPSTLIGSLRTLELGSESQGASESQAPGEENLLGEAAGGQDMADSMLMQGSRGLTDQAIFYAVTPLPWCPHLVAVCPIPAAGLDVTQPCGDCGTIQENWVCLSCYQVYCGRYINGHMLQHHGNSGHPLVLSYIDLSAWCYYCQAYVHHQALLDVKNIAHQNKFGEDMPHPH

HDAC3 = HDAC3 (Homo sapiens (Human), UniProt O15379); experiment: HDAC isoform profile, HDAC3; assay type: biochemical; details: Table 3 isoform profile
HDAC3, sequence (O15379 whole entry, canonical isoform): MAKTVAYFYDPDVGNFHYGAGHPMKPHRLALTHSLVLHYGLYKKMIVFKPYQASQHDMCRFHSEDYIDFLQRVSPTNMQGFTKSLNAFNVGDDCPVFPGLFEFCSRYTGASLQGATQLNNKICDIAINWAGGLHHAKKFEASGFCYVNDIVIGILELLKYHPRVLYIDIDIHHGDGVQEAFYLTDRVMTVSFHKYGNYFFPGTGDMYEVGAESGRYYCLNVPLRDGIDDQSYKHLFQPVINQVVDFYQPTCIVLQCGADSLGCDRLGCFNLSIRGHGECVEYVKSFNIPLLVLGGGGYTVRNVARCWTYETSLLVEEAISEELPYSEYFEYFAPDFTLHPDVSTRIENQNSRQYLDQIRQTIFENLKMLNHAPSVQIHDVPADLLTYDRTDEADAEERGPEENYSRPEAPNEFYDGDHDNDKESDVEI
HDAC3, sequence (Q9Y618 395-489 partner): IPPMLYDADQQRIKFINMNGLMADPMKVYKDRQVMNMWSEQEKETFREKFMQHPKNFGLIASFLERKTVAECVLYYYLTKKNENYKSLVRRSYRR

[3] = test system: acetyl α-tubulin in B16 melanoma cells; experiment: Tubulin acetylation Western blot assay; assay type: cell-based, murine; details: low nanomolar treatment, 24 h
Method: (§1) […]. B16 melanoma cells were plated at 10^5 cells/well in 12 well plates and allowed to adhere overnight. A 50 mM stock of compound was then added by serial dilutions in complete medium to the indicated concentrations. Cells were incubated for 24 h under humidified conditions (37° C., 5% CO2). Wells were then washed with cold PBS, and cells were lysed in a buffer containing 10 mM Tris-HCl pH 8.0, 10% SDS, […], 100 mM DTT, and 1× protease inhibitor (Roche). Cells were lysed for 30 min on ice and then sonicated for 8 min (8 cycles of 30 s on/30 s rest). Cells were then boiled for 10 min with 6× gel loading buffer and resolved on 4-15% gradient gels and subsequently transferred onto nitrocellulose membranes. Membranes were blocked with 5% milk in PBS-T and detection of specific antigens using antibodies against acetyl-H3 and H3 (Cell Signaling), and acetyl-α-tubulin and α-tubulin (Sigma). Bands were detected by scanning blots with LI-COR Odyssey imaging system using both 700 and 800 channels.

[4] = test system: histone H3 acetylation in B16 melanoma cells; experiment: Histone acetylation Western blot assay; assay type: cell-based, murine
Method: as §1

[5] = test system: B16 murine melanoma cells; experiment: B16 melanoma cell growth inhibition assay (MTS); assay type: cell-based
Method: B16 murine melanoma cells were plated at 5×10^3/well in 96 well flat bottom plates. The following day, media was changed to that containing various concentrations of HDACi or matched DMSO vehicle concentrations diluted in complete medium done in triplicate. Cells were incubated for 48 hours at 37° C. and 5% CO2. […] Briefly, 20 μL of reagent were added per well and incubated at 37° C. for 3 hours. […] All values were then normalized and expressed as a percentage of medium control (100%).

[6] = test system: JAK2/STAT3 phosphorylation; experiment: JAK2/STAT3 phosphorylation in B16 murine melanoma cells in vivo
[7] = test system: antigen-specific T-cell responses; experiment: Antigen-specific T-cell responses to vaccination in vivo; parameters: species or system mice; details: in vivo treatment
melanoma = experiment: Anti-melanoma effect in vivo; details: alone or in combination with anti-CLTA4
[8] = test system: STAT3 phosphorylation and recruitment to the IL-10 gene promotor; experiment: STAT3 phosphorylation and recruitment to the IL-10 gene promotor in APCs; assay type: cell-based
macrophages = experiment: Immunological effects upon macrophages; assay type: cell-based
[9] = test system: naIve and anergic T-cells; experiment: In vitro antigen-presenting studies with treated macrophages; assay type: cell-based
MCL = experiment: Antitumor effect in MCL-bearing mice; assay type: in vivo
[10] = Table 1, mean of two experiments ± standard deviation, 10-point enzyme assay

human, recombinant full-length HDAC1, sequence (Q13547 whole entry): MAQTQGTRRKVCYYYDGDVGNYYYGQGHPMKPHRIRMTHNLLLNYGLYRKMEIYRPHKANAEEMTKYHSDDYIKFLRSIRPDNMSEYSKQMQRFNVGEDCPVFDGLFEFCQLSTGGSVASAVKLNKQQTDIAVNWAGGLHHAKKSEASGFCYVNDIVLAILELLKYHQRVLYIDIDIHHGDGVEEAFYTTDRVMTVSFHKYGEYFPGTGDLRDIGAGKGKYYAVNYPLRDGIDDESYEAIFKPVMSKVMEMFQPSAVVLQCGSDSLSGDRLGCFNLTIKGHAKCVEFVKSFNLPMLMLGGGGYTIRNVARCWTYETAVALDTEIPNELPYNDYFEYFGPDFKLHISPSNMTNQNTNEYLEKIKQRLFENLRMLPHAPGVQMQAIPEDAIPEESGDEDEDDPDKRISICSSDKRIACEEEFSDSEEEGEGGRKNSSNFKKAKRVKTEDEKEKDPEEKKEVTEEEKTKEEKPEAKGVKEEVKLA

Q: `COc1ccccc1NC(=O)NCc1ccc(C(=O)NO)cc1` [Compound 1] was tested. Which IC50 [1, 10] did it give?
A: The IC50 was 0.265 ± 0.059 µM.

Q: And the “Fold Selective (HDAC1/HDAC6)” value ([2]; Table 1)?
A: The value was 2.

Q: And the IC50 [2, 10]?
A: Its IC50 is 0.139 ± 0.027 µM.

Q: `COc1ccccc1NC(=O)N(CCCN(C)C)Cc1ccc(C(=O)NO)cc1` [Compound 5a, 4-((1-(3-(dimethylamino)propyl)-3-(2-methoxyphenyl)ureido)methyl)-N-hydroxybenzamide] was tested. Which IC50 [1, 10] did it give?
A: Its IC50 is 2.55 ± 0.54 µM.

Q: What about the “Fold Selective (HDAC1/HDAC6)” value ([2]; Table 1) of the same compound?
A: The value was 6.

Q: What about the IC50 [2, 10] of the same compound?
A: The IC50 was 0.458 ± 0.064 µM.

Q: Which results are given for `COc1ccccc1NC(=O)N(CCCO)Cc1ccc(C(=O)NO)cc1` [Compound 5b, N-hydroxy-4-((1-(3-hydroxypropyl)-3-(2-methoxyphenyl)ureido)methyl)-benzamide]?
A: IC50 [1, 10]: 1.91 ± 0.57 µM; Fold Selective (HDAC1/HDAC6) ([2]; Table 1): 803; IC50 [2, 10]: 0.00238 ± 0.00038 µM

Q: What does the source list for `COc1ccccc1NC(=O)N(CCc1c[nH]c2ccccc12)Cc1ccc(C(=O)NO)cc1` [Compound 5c, 4-((1-(2-(1H-indol-3-yl)ethyl)-3-(2-methoxyphenyl)ureido)methyl)-N-hydroxybenzamide]?
A: IC50 [1, 10]: 8.95 ± 0.77 µM; Fold Selective (HDAC1/HDAC6) ([2]; Table 1): 19; IC50 [2, 10]: 0.468 ± 0.13 µM

Q: Which results are given for `COc1ccccc1NC(=O)N(CCc1ccc(O)cc1)Cc1ccc(C(=O)NO)cc1` [Compound 5d, N-hydroxy-4-((1-(4-hydroxyphenethyl)-3-(2-methoxyphenyl)ureido)methyl)-benzamide]?
A: IC50 [1, 10]: 1.69 ± 0.12 µM; Fold Selective (HDAC1/HDAC6) ([2]; Table 1): 292; IC50 [2, 10]: 0.0058 ± 0.0005 µM

Q: `COCCCN(Cc1ccc(C(=O)NO)cc1)C(=O)Nc1ccccc1` [Compound 5e, N-hydroxy-4-((1-(3-methoxypropyl)-3-phenylureido)methyl)benzamide] was tested. Which IC50 [1, 10] did it give?
A: The IC50 was 5.18 ± 0.13 µM.

Q: And the “Fold Selective (HDAC1/HDAC6)” value ([2]; Table 1)?
A: Its value is 443.

Q: And the IC50 [2, 10]?
A: The IC50 was 0.0117 ± 0.0017 µM.

Q: What does the source list for `COCCN(Cc1ccc(C(=O)NO)cc1)C(=O)Nc1ccccc1` [Compound 5f, N-hydroxy-4-((1-(2-methoxyethyl)-3-phenylureido)methyl)benzamide]?
A: IC50 [1, 10]: 2.25 ± 0.42 µM; Fold Selective (HDAC1/HDAC6) ([2]; Table 1): 243; IC50 [2, 10]: 0.00926 ± 0.00066 µM

Q: How did the IC50 (HDAC3) turn out when `CCCCN(Cc1ccc(C(=O)NO)cc1)C(=O)Nc1ccccc1` [Compound 5g, 4-((1-butyl-3-phenylureido)methyl)-N-hydroxybenzamide] was run?
A: Its IC50 is 6.68 ± 1.75 µM.

Q: What about the “acetyl α-tubulin levels” value [3] of the same compound?
A: The value was “dose-dependant increase of acetyl α-tubulin levels; also recorded: increased acetyl-tubulin levels”.

Q: And the “histone H3 acetylation” value ([4]; concentrations of 1 and 10 μM)?
A: Its value is “observable increase in histone H3 acetylation”.

Q: What about the “histone H3 acetylation” value ([4]; low nanomolar treatment, 24 h) of the same compound?
A: The value was “without a concamanent elevation of histone H3 acetylation”.

Q: Which results are given for `O=C(NO)c1ccc(CN(CCc2ccccc2)C(=O)Nc2ccccc2)cc1` [Compound 5h, N-hydroxy-4-((1-phenethyl-3-phenylureido)methyl)benzamide]?
A: IC50 [1, 10]: 3.12 ± 0.64 µM; Fold Selective (HDAC1/HDAC6) ([2]; Table 1): 222; IC50 [2, 10]: 0.014 ± 0.00075 µM; growth inhibition of B16 melanoma cells (in words) [5]: capable of inhibiting the growth of B16 melanoma cell line

Q: For `CCCCN(C(=O)NCc1ccc(C(=O)NO)cc1)c1ccccc1` [Compound 8a, 4-((3-butyl-3-phenylureido)methyl)-N-hydroxybenzamide], which IC50 [1, 10] is on record?
A: The IC50 was 8.12 ± 0.6 µM.

Q: And the “Fold Selective (HDAC1/HDAC6)” value ([2]; Table 1)?
A: The value was 322.

Q: What about the IC50 [2, 10] of the same compound?
A: The IC50 was 0.0252 ± 0.0025 µM.

Q: What does the source list for `COc1ccc(NC(=O)NCc2ccc(C(=O)NO)cc2)cc1` [Compound 9a]?
A: IC50 [1, 10]: 1.06 µM; Fold Selective (HDAC1/HDAC6) ([2]; Table 1): 128; IC50 [2, 10]: 0.0083 µM

Q: For `Cc1ccnc(NC(=O)NCc2ccc(C(=O)NO)cc2)c1` [Compound 9b], which IC50 [1, 10] is on record?
A: The IC50 was 0.579 µM.

Q: What about the “Fold Selective (HDAC1/HDAC6)” value ([2]; Table 1) of the same compound?
A: The value was 263.

Q: And the IC50 [2, 10]?
A: Its IC50 is 0.0022 µM.

Q: Which IC50 [1, 10] does the source give for `Cc1cc(NC(=O)NCc2ccc(C(=O)NO)cc2)no1` [Compound 9c] here?
A: The IC50 was 1 µM.

Q: And the “Fold Selective (HDAC1/HDAC6)” value ([2]; Table 1)?
A: Its value is 145.

Q: And the IC50 [2, 10]?
A: The IC50 was 0.0069 µM.

Q: With `COc1ccccc1N1C(=O)N(Cc2ccc(C(=O)NO)cc2)C(C)(C)C1=O` [Compound 10a] as the compound, how does the IC50 ([1]; Table 2, cyclic urea compounds) read?
A: Its IC50 is 28.6 µM.

Q: What about the “Fold Selective (HDAC1/HDAC6)” value ([2]; Table 2, cyclic urea compounds) of the same compound?
A: The value was 386.

Q: And the IC50 ([2]; Table 2, cyclic urea compounds)?
A: Its IC50 is 0.0742 µM.

Q: With `CC(C)[C@@H]1C(=O)N(c2ccccc2)C(=O)N1Cc1ccc(C(=O)NO)cc1` [Compound 10b] as the compound, how does the IC50 ([1]; Table 2, cyclic urea compounds) read?
A: The IC50 was 11.8 µM.

Q: And the “Fold Selective (HDAC1/HDAC6)” value ([2]; Table 2, cyclic urea compounds)?
A: Its value is 531.

Q: And the IC50 ([2]; Table 2, cyclic urea compounds)?
A: Its IC50 is 0.0222 µM.

Q: With `O=C(NO)c1ccc(CN2C(=O)N[C@@H](Cc3ccccc3)C2=O)cc1` [Compound 11a] as the compound, how does the IC50 ([1]; Table 2, cyclic urea compounds) read?
A: Its IC50 is 7.56 µM.

Q: What about the “Fold Selective (HDAC1/HDAC6)” value ([2]; Table 2, cyclic urea compounds) of the same compound?
A: The value was 295.

Q: What about the IC50 ([2]; Table 2, cyclic urea compounds) of the same compound?
A: The IC50 was 0.0256 µM.

Q: `CN1CCc2c(c3ccccc3n2Cc2ccc(C(=O)NO)cc2)C1` [Tubastatin A] was tested. Which JAK2/STAT3 phosphorylation [6] did it give?
A: The JAK2/STAT3 phosphorylation was “inhibits JAK2/STAT3 phosphorylation”.

Q: And the “antigen-specific T-cell responses to vaccination” value [7]?
A: The value was “augments antigen-specific CD4+ T-cell responses to vaccination”.

Q: What about the “antigen-specific T-cell responses to vaccination” value ([7]; listed as Tubastatin-A) of the same compound?
A: The value was “enhances antigen-specific T-cell responses to vaccination”.

Q: What about the anti-melanoma effect (melanoma) of the same compound?
A: The anti-melanoma effect was “anti-melanoma effect”.

Q: And the “STAT3 phosphorylation and recruitment to the IL-10 gene promotor” value [8]?
A: The value was “decreased STAT3 phosphorylation and recruitment to the IL-10 gene promotor”.

Q: And the IL-10 production (macrophages)?
A: The IL-10 production was “inhibits IL-10 production”.

Q: What about the “expression of co-stimulatory molecules” value (macrophages) of the same compound?
A: Its value is “increased the expression of co-stimulatory molecules”.

Q: And the “activation of T-cells by treated macrophages” value [9]?
A: The value was “better activators of naIve T-cells and restore the responsiveness of anergic T-cells”.

Q: And the antitumor effect (MCL)?
A: The antitumor effect was “strong antitumor effect”.
